Consider 4 molecules from patent US6783775B2, “Serum-derived factor inducing cell differentiation and medical uses thereof” (Hadasit Medical Research Services and Development Ltd., priority 1996, dated 2004).

Assay [1] relates to normal hemopoietic progenitor cells. The assay is described as follows: Indirect cloning (two-phase culture) of normal hemopoietic progenitors. In kind it is cell-based, human. The note with it: indirect cloning system, control (0) 70. As for the experimental part: Indirect cloning: Cells were prepared as described for direct cloning, were first incubated for several days in liquid culture supplemented with or without the indicated growth factors or tested fraction, then washed. and cloned in semi-solid medium as described above.
Expansion of normal hemopoietic progenitors—In order to test the effect of SDF on early and late normal hemopoietic progenitors a two-phase culture procedure was employed:
Phase 1 (Expansion phase)—Light density BM or PB cells were incubated for several days in liquid medium supplemented with SDF.
Phase 2 (Clonal phase)—At the end of phase 1, cells were harvested, washed and recultured in either semi solid medium or in liquid medium supplemented with either recombinant human late growth/differentiation factors like GM-CSF, Epo, or 5637-CM, which contains GM, G-CSF. IL-6, IL-1 and other cytokines, but not Epo. […] The lineage specific differentiation of the colonies in Phase 2 depended on the late factor present, e.g., Epo for CFU-E and GM-CSF for CFU-GM.

Assay [2] concerns HL-60 cells. The assay is described as follows: Cell proliferation assay (3H-thymidine incorporation) on HL-60 cells. In kind it is cell-based, human. As for the experimental part:
(§1) Cell lines included the human myelomonocytic cells HL-60, GM-CSF-dependent human myelomonocytic cells LK (established in the inventors' laboratory) and the murine monocytic cell line WEHI. Cell lines were maintained by sub-culturing every 3-4 days at 2.5×10^5 cell/ml in either alpha minimal essential or RPMI-1640 media (GIBCO, Grand Island, N.Y.) supplemented with 10-20% fetal calf serum (FCS) (Bio Labs Jerusalem, Israel). The cultures were incubated at 37° C., in a humidified atmosphere of 5% CO2 in air. The concentration of viable cells was determined by the trypan blue exclusion technique. Total cell count was performed using a Coulter counter.
HL-60 or other cells were cultured at 1.3×10^5/ml in 24-well dish and medium containing 0.5% heat-inactivated FCS and various dilutions of the tested fractions. DNA synthesis was determined on day 4 by incorporation of ^3[H]-thymidine ([…]/150 μl) (5 mCi/mmol, ICN Radiochemicals, Irvine, Calif.) added 12 hrs before harvesting. One unit of SDF was defined as the amount per milliliter required for 50% decrease in ^3H-thymidine incorporation.
For orientation: Uptake of a labelled nucleoside into DNA is a usual measure of proliferation.

Assay [3] has as its system HL-60 cells. As to the kind of experiment: Leukemic cell cloning (colony formation) of HL-60 cells in semi-solid medium. In kind it is cell-based, human. The note with it: HL-60 600 cells/ml; 8 days; mean of two experiments; G-CSF 1000 U/ml, IL-1 100 U/ml. As for the experimental part:
as §1
(§2) 300-1000 cells/ml were seeded in semi-solid medium composed of 0.83% methyl-cellulose (Fisher Scientific company, Fair Lawn, N.J.) or 0.3% Bacto agar (Difco laboratories, Detroit, Mich.) in alpha medium supplemented with 10% FCS. Colony number was scored with an inverted microscope on day 8. In order to determine cellular maturation, single colonies were picked up with a fine capillary tube, smeared on a glass slide and stained.

Assay [4] concerns WEHI cells. The assay is described as follows: Leukemic cell cloning (colony formation) of WEHI cells in semi-solid medium. In kind it is cell-based, murine. Particulars: WEHI 300 cells/ml; 8 days; mean of two experiments; G-CSF 100 U/ml, IL-1 100 U/ml. On the procedure:
as §1, §2

`O=C(O)c1cc(C(=O)O)c2c(n1)C(=O)C(=O)c1cc(C(=O)O)[nH]c1-2` [PQQ, pyrroloquinoline quinone]: the “Colony No.” value in assay [1] (PQQ concentration 0.01 μg/ml) is on record as 89; in assay [1] (PQQ concentration 0.1 μg/ml), 109; in assay [1] (PQQ concentration 1 μg/ml) it was 130; in assay [1] (PQQ concentration 5 μg/ml), 148. Moreover, in assay [2] (Homo sapiens, HL-60, PQQ concentration 0.01 μg/ml, HL60 cells, read-out: Growth inhibition (%)), the inhibition (commonly the drop in the measured response relative to a control, in per cent) at 0.01 µg/mL amounted to 0%. Also, in assay [2] (Homo sapiens, HL-60, PQQ concentration 0.05 μg/ml, HL60 cells, read-out: Growth inhibition (%)), the inhibition at 0.05 µg/mL worked out at 30%. Moreover, in assay [2] (Homo sapiens, HL-60, PQQ concentration 0.1 μg/ml, HL60 cells, read-out: Growth inhibition (%)), the inhibition at 0.1 µg/mL was determined as 30%. Also, the inhibition at 0.5 µg/mL in assay [2] (Homo sapiens, HL-60, PQQ concentration 0.5 μg/ml, HL60 cells, read-out: Growth inhibition (%)) was determined as 40%. In addition, in assay [2] (Homo sapiens, HL-60, PQQ concentration 1 μg/ml, HL60 cells, read-out: Growth inhibition (%)), the inhibition at 1 µg/mL is 40%. Also, the inhibition at 5 µg/mL in assay [2] (Homo sapiens, HL-60, PQQ concentration 5 μg/ml, HL60 cells, read-out: Growth inhibition (%)) came to 60%.

For `CC1=C(/C=C/C(C)=C/C=C/C(C)=C/C(=O)O)C(C)(C)CCC1` [Retinoic acid], in assay [3], the “Colonies: Diffused (fully differentiated)” value was determined as 114, the “Colonies: Partially diffused (partially differentiated)” value (shortened to “Colonies … (partially differentiated)”) amounted to 49, the “Colonies: Tight (undifferentiated)” value is recorded as 0 and the “Colonies: Total” value is on record as 163.

B1: ceruloplasmin (protein, UniProt P00450 20-1065, looked up)
Ceruloplasmin: KEKHYYIGIIETTWDYASDHGEKKLISVDTEHSNIYLQNGPDRIGRLYKKALYLQYTDETFRTTIEKPVWLGFLGPIIKAETGDKVYVHLKNLASRPYTFHSHGITYYKEHEGAIYPDNTTDFQRADDKVYPGEQYTYMLLATEEQSPGEGDGNCVTRIYHSHIDAPKDIASGLIGPLIICKKDSLDKEKEKHIDREFVVMFSVVDENFSWYLEDNIKTYCSEPEKVDKDNEDFQESNRMYSVNGYTFGSLPGLSMCAEDRVKWYLFGMGNEVDVHAAFFHGQALTNKNYRIDTINLFPATLFDAYMVAQNPGEWMLSCQNLNHLKAGLQAFFQVQECNKSSSKDNIRGKHVRHYYIAAEEIIWNYAPSGIDIFTKENLTAPGSDSAVFFEQGTTRIGGSYKKLVYREYTDASFTNRKERGPEEEHLGILGPVIWAEVGDTIRVTFHNKGAYPLSIEPIGVRFNKNNEGTYYSPNYNPQSRSVPPSASHVAPTETFTYEWTVPKEVGPTNADPVCLAKMYYSAVEPTKDIFTGLIGPMKICKKGSLHANGRQKDVDKEFYLFPTVFDENESLLLEDNIRMFTTAPDQVDKEDEDFQESNKMHSMNGFMYGNQPGLTMCKGDSVVWYLFSAGNEADVHGIYFSGNTYLWRGERRDTANLFPQTSLTLHMWPDTEGTFNVECLTTDHYTGGMKQKYTVNQCRRQSEDSTFYLGERTYYIAAVEVEWDYSPQREWEKELHHLQEQNVSNAFLDKGEFYIGSKYKKVVYRQYTDSTFRVPVERKAEEEHLGILGPQLHADVGDKVKIIFKNMATRPYSIHAHGVQTESSTVTPTLPGETLTYVWKIPERSGAGTEDSACIPWAYYSTVDQVKDLYSGLIGPLIVCRRPYLKVFNPRRKLEFALLFLVFDENESWYLDDNIKTYSDHPEKVNKDDEEFIESNKMHAINGRMFGNLQGLTMHVGDEVNWYLMGMGNEIDLHTVHFHGHSFQYKHRGVYSSDVFDIFPGTYQTLEMFPRTPGIWLLHCHVTDHIHAGMETTYTVLQNEDTKSG
As for B1, the “activity of the CP fraction separated from SDF” value in assay [2] (CP fraction eluted at about 40% acetonitrile from RP-HPLC Resource column) is reported as “devoid of activity”.

B2: G-CSF: growth factor (colony stimulating factor) used for comparison (protein, UniProt P09919 31-207, looked up)
Granulocyte …: TPLGPASSLPQSFLLKCLEQVRKIQGDGAALQEKLVSECATYKLCHPEELVLLGHSLGIPWAPLSSCPSQALQLAGCLSQLHSGLFLYQGLLQALEGISPELGPTLDTLQLDVADFATTIWQQMEELGMAPALQPTQGAMPAFASAFQRRAGGVLVASHLQSFLEVSYRVLRHLAQP
As for B2, in assay [4], the “Colonies: Diffused (fully differentiated)” value was 51, the “Colonies … (partially differentiated)” value is listed as 55, the “Colonies: Tight (undifferentiated)” value amounted to 25 and the “Colonies: Total” value is reported as 132. Besides, in assay [3], the “Colonies: Diffused (fully differentiated)” value is 0, the “Colonies … (partially differentiated)” value is given as 12, the “Colonies: Tight (undifferentiated)” value is listed as 325 and the “Colonies: Total” value is 337.
